US10166218B2, “3-(1H-indol-2-yl)-1H-pyrazolo[3,4-C]pyridines and therapeutic uses thereof” (Samumed, LLC, priority 2015, dated 2019)
pEC50: −log10 of the molar value.

What was measured:
[1] = test system: Wnt activity (Sp5-Luc reporter, TCF/LEF binding sites) in SW480 colon carcinoma cells; assay: Screening assay for Wnt activity: Sp5-Luc reporter gene assay in stably transduced SW480 cells; format: cell-based; settings: Homo sapiens, overnight incubation
Summary of the method: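 Luminescence (BrightGlo) was normalised to DMSO-only wells and fitted with a four-parameter variable-slope model for EC50; beyond 10 μM, % inhibition at 10 μM is given. Stable Sp5-Luc SW480 reporter cells, 4,000/well in 1% FBS, were exposed overnight at 37 °C to compounds, top 10 μM, 1:3 dilutions, 0.1% DMSO.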

[2] = test system: primary human mesenchymal stem cells (hMSCs); assay: Induction of chondrogenesis in primary human mesenchymal stem cells (chondrogenic nodules); format: cell-based; settings: 144 h, 6 days; for EC50: concentration required to induce 50% levels of chondrogenesis of TGF-β3 positive control, read-out: Conc (nM) of 50% TGF-β3 activity; for Emax: nodules, relative to TGF-β3 (10 ng/mL) positive control, read-out: Max. Activity as % TGF-β3 activity
Procedure: Representative compounds were screened using primary human mesenchymal stem cells (hMSCs) to determine their ability to induce chondrogenesis (process by which cartilage is developed).
Primary human mesenchymal stem cells (hMSCs) were purchased from Lonza (Walkersville, Md.) and expanded in Mesenchymal Stem Cell Growth Media (Lonza). Cells between passage 3 and 6 were used for the experiments.
Each compound was dissolved in DMSO as a 10 mM stock and used to prepare compound source plates. Serial dilution (1:3, 6-point dose-response curves from 2700 nM to 10 nM) and compound transfer was performed using the ECHO 550 (Labcyte, Sunnyvale, Calif.) into 96-well clear bottom assay plates (Greiner Bio-One) with appropriate DMSO backfill for a final DMSO concentration of 0.03%. hMSCs were plated at 20,000 cells/well in 250 μL/well Incomplete Chondrogenic Induction Medium (Lonza; DMEM, dexamethasone, ascorbate, insulin-transferrin-selenium [ITS supplement], gentamycin-amphotericin [GA-1000], sodium pyruvate, proline and L-glutamine). TGF-β3 (10 ng/mL) was used as a positive control for differentiation while negative control wells were treated with 75 nL DMSO for normalization and calculating EC50 values. Cells were incubated at 37° C. and 5% CO2 for 6 days. To image chondrogenic nodules, the cells were fixed using 4% formaldehyde (Electron Microscopy Sciences), and stained with 2 μg/mL Rhodamine B (Sigma-Aldrich) and 20 μM Nile Red (Sigma-Aldrich) [Johnson K., et. al, A Stem Cell-Based Approach to Cartilage Repair, Science, (2012), 336(6082), 717-721]. The nodules imaged (4 images per well at 4× magnification) by excitation at 531 nm and emission at 625 nm and quantified using the CellInsight CX5 (Thermo Scientific). Number of nodules in each well was normalized to the average of 3 DMSO treated wells on the same plate using Excel (Microsoft Inc.). The normalized averages (fold change over DMSO) of 3 replicate wells for each compound concentration were calculated. Due to solubility limitations of some of the compounds, curve fitting was incomplete leading to inaccurate EC50 determinations.
Using TGF-β3 as a positive control, the concentration of representative compounds required to induce 50% levels of chondrogenesis is reported. In addition, the maximum activity of each compound and the respective dose that each compound reached maximum chondrogenesis activity is reported.

Row | SMILES | pEC50 [1] | EC50 [2] [nM] | Emax [2] [%]
1 | CN(C)CCNc1cc(F)cc(-c2cccc3[nH]c(-c4n[nH]c5cnc(-c6cncc(NC(=O)C(C)(C)C)c6)cc45)cc23)c1 [Compound 456, N-(5-(3-(4-(3-((2-(Dimethylamino)ethyl)amino)-5-fluorophenyl)-1H-indol-2-yl)-1H-pyrazolo[3,4-c]pyridin-5-yl)pyridin-3-yl)pivalamide] | 6.41 | 10 | 87
2 | CCNCc1cncc(-c2cc3c(-c4cc5c(-c6cc(F)cc(NCCN(C)C)c6)cccc5[nH]4)n[nH]c3cn2)c1 [Compound 454, N^1-(3-(2-(5-(5-((Ethylamino)methyl)pyridin-3-yl)-1H-pyrazolo[3,4-c]pyridin-3-yl)-1H-indol-4-yl)-5-fluorophenyl)-N^2,N^2-dimethylethane-1,2-diamine] | 5.90 | 30 | 294
3 | CC(C)C(=O)Nc1cncc(-c2cc3c(-c4cc5c(-c6cccnc6)cccc5[nH]4)n[nH]c3cn2)c1 [Compound 93, N-(5-(3-(4-(Pyridin-3-yl)-1H-indol-2-yl)-1H-pyrazolo[3,4-c]pyridin-5-yl)pyridin-3-yl)isobutyramide] | 6.56 | 10 | 201
4 | CN(C)CCNc1cc(F)cc(-c2cccc3[nH]c(-c4n[nH]c5cnc(-c6cncc(N)c6)cc45)cc23)c1 [Compound 451, N^1-(3-(2-(5-(5-Aminopyridin-3-yl)-1H-pyrazolo[3,4-c]pyridin-3-yl)-1H-indol-4-yl)-5-fluorophenyl)-N^2,N^2-dimethylethane-1,2-diamine] | 6.35 | 100 | 180
5 | Cn1cc(-c2cc3c(-c4cc5c(-c6ccncc6)cccc5[nH]4)n[nH]c3cn2)cn1 [Compound 600, 5-(1-Methyl-1H-pyrazol-4-yl)-3-(4-(pyridin-4-yl)-1H-indol-2-yl)-1H-pyrazolo[3,4-c]pyridine] | 7.57 | 300 | 138
